Measurements as given in patent publication US20200031785A1, “METHODS FOR TREATING CHRONIC PAIN AND OPIOID DEPENDENCE USING ADENYLYL CYCLASE INHIBITORS” (Purdue Research Foundation, priority 2017, published 2020).

How the values were obtained:
hAC1 = biological target: T1, hAC1 (Homo sapiens, UniProt Q08828); test: Cyclic AMP accumulation in HEK cells stably expressing AC1, stimulated with A23187 (HTRF); format: cell-based; settings: HEK-AC1 cells; for inhibition at 30 µM: HEK293; for IC50: read-out: HEK-AC1 IC50
T1 construct: expressed in transfected cells
Procedure: The development and mechanistic characterization of AC1-selective small molecule inhibitors is believed to provide novel non-opioid weapons in the war on chronic pain. We identified our initial hits via screening 10,000 selected compounds from the Life Chemicals collection. The screen was carried out using HEK cells stably expressing AC1 (HEK-AC1) and cyclic AMP accumulation was stimulated using the Ca^2+ ionophore, A23187 to selectively activate AC1. Compounds with potential chemical liabilities and PAINs were removed from further evaluation (Baell and Holloway, J. Med. Chem. 2010, 53, 2719-2740).
(§1) Fresh powders of several robust inhibitors (>90% inhibition) were evaluated in multiple confirmation assays assessing the dose response relationship for inhibiting AC1 and AC8 activity. Confirmation assays used A23817 to selectively stimulate recombinant AC1 or AC8 in the HEK cell background (Cumbay and Watts (2001), J. Pharmacol Exp Ther 297:1201-1399). This approach takes advantage of one unique regulatory property of AC1 for the development of selective inhibitors. Both AC1 and AC8 are robustly activated by Ca^2+/CaM under a variety of conditions, whereas the effects of Ca^2+/CaM on AC3 are modest and conditional requiring activation by G proteins. Previous studies have identified unique Ca^2+/CaM binding domains as one possible site of interaction to achieve AC1 (vs. AC8) selectivity (Masada et al., 2012, Biochemistry 51:7917-7929).
(§2) The primary technology we employed to measure cAMP accumulation was a homogenous time-resolved fluorescence (HTRF) assay, the same technology utilized in the primary screen. […] This could be due to either 1) the chemical scaffolds are exquisitely selective toward the AC family of enzymes or 2) the library has not been screened against a sufficient number of targets. The answer is likely a combination of the two; nonetheless, the lack of biological data to date bodes well for these series and any potential off-target promiscuity.
(§3) Human embryonic kidney (HEK) cells stably expressing AC1, AC8, or AC1 with the MOR were cultured in Dulbecco's Modified Eagle Medium (Life Technologies, Grand Island, N.Y.) supplemented with 5% bovine calf serum (Hyclone, Logan, Utah), 5% fetal clone I (Hyclone), Antibiotic-Antimycotic (Life Technologies), and G418 (Invivogen, San Diego, Calif.) (HEK-AC1), or hygromycin B (Fisher Scientific, Pittsburgh, Pa.) (HEK-AC8), or G418 and puromycin (Sigma-Aldrich) (HEK-AC1/MOR). Chinese hamster ovary (CHO) cells expressing the MOR (CHO-MOR) in the PathHunter® β-Arrestin GPCR assay platform were purchased from DiscoveRx (Freemont, Calif.). Cells were grown in Ham's F12 media supplemented with 1 mM L-glutamine (Thermo Scientific, West Palm Beach, Fla.), 10% fetal bovine serum (Hyclone), 50 U/ml penicillin, 50 μg/ml streptomycin (Life Technologies), G418 and hygromycin B. Cells were grown and frozen as previously described (J. M. Conley, et al., J Vis Exp, e51218 (2014)).
(§4) Cyclic AMP accumulation was measured as previously described (Brust, et al., J. Pharmacol. Exp. Ther. 352, 480-493(2015)). Briefly, cryopreserved cells were thawed, resuspended in optiMEM (Life Technologies), and plated in white, flat bottom, low-volume, tissue culture-treated 384 well plates (PerkinElmer, Shelton, Conn.). Plates with cells were incubated in a 37° C. humidified incubator for 1 h. Inhibitors were added and plates were incubated at room temperature for 30 min followed by the addition of AC stimulants in the presence of 500 μM IBMX. Cells were incubated at room temperature for 1 h and cAMP accumulation was measured using Cisbio's cAMP kit (Cisbio Bioassays, Bedford, Mass.) according to the manufacturer's instructions.

hAC8 = biological target: T2, hAC8 (Homo sapiens, UniProt P40145); test: Cyclic AMP accumulation in HEK cells stably expressing AC8, stimulated with A23187 (HTRF); format: cell-based; settings: HEK-AC8 cells; for inhibition at 30 µM: HEK293; for IC50: read-out: HEK-AC8 IC50
T2 construct: expressed in transfected cells
Procedure: as §1, §2, §3, §4

T2 sequence (P40145 whole entry): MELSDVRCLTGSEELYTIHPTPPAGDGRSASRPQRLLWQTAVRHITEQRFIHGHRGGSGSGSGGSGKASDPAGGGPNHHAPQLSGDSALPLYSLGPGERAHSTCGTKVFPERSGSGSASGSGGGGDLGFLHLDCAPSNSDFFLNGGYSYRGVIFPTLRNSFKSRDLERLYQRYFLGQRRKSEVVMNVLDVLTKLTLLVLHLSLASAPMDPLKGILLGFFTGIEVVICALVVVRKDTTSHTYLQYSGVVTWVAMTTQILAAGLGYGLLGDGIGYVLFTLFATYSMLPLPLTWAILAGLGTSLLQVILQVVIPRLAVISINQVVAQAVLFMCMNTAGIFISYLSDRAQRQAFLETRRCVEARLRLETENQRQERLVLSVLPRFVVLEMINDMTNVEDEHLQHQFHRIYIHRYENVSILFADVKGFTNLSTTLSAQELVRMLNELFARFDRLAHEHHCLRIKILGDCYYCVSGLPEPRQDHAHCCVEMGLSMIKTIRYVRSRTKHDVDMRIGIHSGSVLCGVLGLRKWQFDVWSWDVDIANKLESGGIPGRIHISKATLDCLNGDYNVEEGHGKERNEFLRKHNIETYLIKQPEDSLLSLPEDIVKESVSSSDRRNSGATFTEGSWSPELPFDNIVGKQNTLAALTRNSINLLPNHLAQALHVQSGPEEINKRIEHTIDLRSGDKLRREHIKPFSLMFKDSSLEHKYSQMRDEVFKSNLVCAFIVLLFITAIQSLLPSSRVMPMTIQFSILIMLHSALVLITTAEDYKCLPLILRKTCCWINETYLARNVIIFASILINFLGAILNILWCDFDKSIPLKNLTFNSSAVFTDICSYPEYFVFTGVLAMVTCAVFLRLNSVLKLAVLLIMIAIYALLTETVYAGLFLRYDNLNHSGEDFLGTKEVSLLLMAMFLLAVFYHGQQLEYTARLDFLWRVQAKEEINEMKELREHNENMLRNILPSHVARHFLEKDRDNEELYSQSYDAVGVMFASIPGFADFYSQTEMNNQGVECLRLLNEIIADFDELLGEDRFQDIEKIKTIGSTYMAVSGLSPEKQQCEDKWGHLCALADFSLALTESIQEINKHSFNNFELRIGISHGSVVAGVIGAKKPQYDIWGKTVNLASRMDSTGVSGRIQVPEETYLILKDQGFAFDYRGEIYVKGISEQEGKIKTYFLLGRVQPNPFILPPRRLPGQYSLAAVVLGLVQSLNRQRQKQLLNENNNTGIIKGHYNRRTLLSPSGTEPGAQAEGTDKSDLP
T1 sequence (Q08828 whole entry): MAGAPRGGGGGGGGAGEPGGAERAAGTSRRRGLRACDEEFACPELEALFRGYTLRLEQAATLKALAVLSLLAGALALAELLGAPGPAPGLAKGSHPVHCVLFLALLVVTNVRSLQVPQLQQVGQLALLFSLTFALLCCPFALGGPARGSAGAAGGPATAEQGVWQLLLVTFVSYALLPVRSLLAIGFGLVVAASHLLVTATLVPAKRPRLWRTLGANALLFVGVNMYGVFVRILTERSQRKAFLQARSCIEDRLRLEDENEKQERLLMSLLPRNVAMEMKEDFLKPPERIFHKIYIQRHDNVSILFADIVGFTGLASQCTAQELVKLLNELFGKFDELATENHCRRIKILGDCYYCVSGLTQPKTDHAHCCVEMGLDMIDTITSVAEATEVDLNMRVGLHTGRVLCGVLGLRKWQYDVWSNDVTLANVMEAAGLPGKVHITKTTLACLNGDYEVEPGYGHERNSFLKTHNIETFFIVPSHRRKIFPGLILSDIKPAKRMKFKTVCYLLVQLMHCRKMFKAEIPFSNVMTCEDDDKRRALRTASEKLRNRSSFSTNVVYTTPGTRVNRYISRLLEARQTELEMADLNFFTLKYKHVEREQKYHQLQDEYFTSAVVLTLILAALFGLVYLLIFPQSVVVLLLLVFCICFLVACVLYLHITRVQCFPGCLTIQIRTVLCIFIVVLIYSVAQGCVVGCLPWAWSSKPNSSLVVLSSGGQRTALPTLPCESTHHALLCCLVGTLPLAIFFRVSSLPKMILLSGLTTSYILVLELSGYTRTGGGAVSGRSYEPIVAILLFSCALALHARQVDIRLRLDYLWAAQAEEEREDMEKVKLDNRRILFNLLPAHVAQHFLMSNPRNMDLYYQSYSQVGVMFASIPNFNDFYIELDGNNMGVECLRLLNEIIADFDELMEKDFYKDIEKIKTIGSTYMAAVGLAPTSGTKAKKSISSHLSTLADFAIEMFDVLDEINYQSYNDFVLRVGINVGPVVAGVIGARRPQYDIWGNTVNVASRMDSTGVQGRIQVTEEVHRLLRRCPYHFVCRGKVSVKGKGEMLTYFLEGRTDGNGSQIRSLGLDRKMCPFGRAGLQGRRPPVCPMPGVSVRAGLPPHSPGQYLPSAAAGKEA

| SMILES | inhibition at 30 µM (hAC1) [%] | IC50 (hAC1) [µM] | inhibition at 30 µM (hAC8) [%] | IC50 (hAC8) [µM] |
| --- | --- | --- | --- | --- |
| O=C(Nc1nnc(C2CCCCC2)o1)c1ccccc1 [AC10003, N-(5-cyclohexyl-1,3,4-oxadiazol-2-yl)benzamide] | 65 ± 4 | 24.5 ± 2 | 3 ± 6 | – |
| O=C(Nc1nnc(-c2ccc(F)cc2)o1)c1ccc(Cl)cc1 [AC10054, 4-chloro-N-(5-(4-fluorophenyl)-1,3,4-oxadiazol-2-yl)benzamide] | 76 ± 1 | 8.9 ± 1 | 11 ± 9 | – |
| COc1cccc(C(=O)Nc2nnc(-c3ccc(F)cc3)o2)c1 [AC10034, N-(5-(4-fluorophenyl)-1,3,4-oxadiazol-2-yl)-3-methoxybenzamide] | 79 ± 9 | 15 ± 4 | 23 ± 5 | 101 ± 14 |
| Cc1cc(C(=O)Nc2nnc(-c3ccc4c(c3)CCCC4)o2)cc(C(F)(F)F)c1 [AC10072, 3-methyl-N-(5-(5,6,7,8-tetrahydronaphthalen-2-yl)-1,3,4-oxadiazol-2-yl)-5-(trifluoromethyl)benzamide] | 85 ± 4 | 9.1 ± 3 | 78 ± 13 | 2.4 ± 0.02 |
| COc1cccc(C(=O)Nc2nnc(-c3ccc4c(c3)OCCO4)o2)c1 [AC10038, N-(5-(2,3-dihydrobenzo[b][1,4]dioxin-6-yl)-1,3,4-oxadiazol-2-yl)-3-methoxybenzamide] | 84 ± 5 | 9.6 ± 3 | 18 ± 10 | 115 ± 43 |
| COc1cc(C(=O)Nc2nnc(-c3ccc(F)cc3)o2)cc(C(F)(F)F)c1 [AC10068, N-(5-(4-fluorophenyl)-1,3,4-oxadiazol-2-yl)-3-methoxy-5-(trifluoromethyl)benzamide] | 97 ± 1 | 5 ± 1 | 80 ± 9 | 6 ± 1 |
| O=C(Nc1nnc(-c2ccc3c(c2)OCCO3)o1)c1cccc(C(F)(F)F)c1 [AC10023, N-(5-(2,3-dihydrobenzo[b][1,4]dioxin-6-yl)-1,3,4-oxadiazol-2-yl)-3-(trifluoromethyl)benzamide] | 100 ± 0.2 | 5.1 ± 0.7 | 60 ± 8 | 32 ± 12 |
| O=C(Nc1nnc(C2CCCCC2)o1)c1ccc(F)cc1 [AC10053, N-(5-cyclohexyl-1,3,4-oxadiazol-2-yl)-4-fluorobenzamide] | 74 ± 3 | 12.8 ± 1 | 7 ± 4 | – |
| CC(C)Oc1ccc(C(=O)Nc2nnc(-c3ccc4c(c3)CCCC4)o2)cc1 [AC10010, 4-isopropoxy-N-(5-(5,6,7,8-tetrahydronaphthalen-2-yl)-1,3,4-oxadiazol-2-yl)benzamide] | 77 ± 13 | 9.9 ± 7 | 63 ± 7 | 12.6 ± 6 |
| O=C(Nc1nnc(-c2ccc3c(c2)CCCC3)o1)c1ccc(Cl)cc1 [AC10061, 4-chloro-N-(5-(5,6,7,8-tetrahydronaphthalen-2-yl)-1,3,4-oxadiazol-2-yl)benzamide] | 99 ± 1 | – | 90 ± 0.4 | – |
| O=C(Nc1nnc(-c2ccc(F)cc2)o1)c1cccc(F)c1 [AC10046, 3-fluoro-N-(5-(4-fluorophenyl)-1,3,4-oxadiazol-2-yl)benzamide] | 81 ± 7 | 10.6 ± 3 | 35 ± 1 | 69 ± 11 |
| Cc1ccc(C(=O)Nc2nnc(-c3ccc(F)cc3)o2)cc1 [AC10031, N-(5-(4-fluorophenyl)-1,3,4-oxadiazol-2-yl)-4-methylbenzamide] | 80 ± 10 | 7.3 ± 2 | 31 ± 6 | 61 ± 33 |
| COc1ccc(C(=O)Nc2nnc(C3CCCCC3)o2)cc1 [AC10040, N-(5-cyclohexyl-1,3,4-oxadiazol-2-yl)-4-methoxybenzamide] | 73 ± 1 | 22 ± 3 | 6 ± 16 | – |
| O=C(Nc1nnc(-c2ccc(F)cc2)o1)c1ccc(-c2ccccc2)cc1 [AC10066, N-(5-(4-fluorophenyl)-1,3,4-oxadiazol-2-yl)-[1,1′-biphenyl]-4-carboxamide] | 97 ± 1 | 2.8 ± 0.6 | 90 ± 10 | 7.5 ± 1 |
| Cc1ccc(C(=O)Nc2nnc(-c3ccc4c(c3)OCCO4)o2)cc1 [AC10029, N-(5-(2,3-dihydrobenzo[b][1,4]dioxin-6-yl)-1,3,4-oxadiazol-2-yl)-4-methylbenzamide] | 86 ± 11 | 11.5 ± 4 | 25 ± 6 | 83 ± 47 |
| COc1cccc(C(=O)Nc2nnc(-c3ccc4c(c3)CCCC4)o2)c1 [AC10016, 3-methoxy-N-(5-(5,6,7,8-tetrahydronaphthalen-2-yl)-1,3,4-oxadiazol-2-yl)benzamide] | 99 | 3.1 ± 0.4 | 55 ± 3 | 25 ± 4 |
| COc1ccc(C(=O)Nc2nnc(-c3ccc(F)cc3)o2)cc1 [AC10039, N-(5-(4-fluorophenyl)-1,3,4-oxadiazol-2-yl)-4-methoxybenzamide] | 73 ± 4 | – | 20 ± 6 | – |
| CSc1ccc(C(=O)Nc2nnc(-c3ccc4c(c3)OCCO4)o2)cc1 [AC10020, 4-methylthio-N-(5-(2,3-dihydrobenzo[b][1,4]dioxin-6-yl)-1,3,4-oxadiazol-2-yl)benzamide] | 88 ± 5 | 9.5 ± 1 | 37 ± 9 | 76 ± 39 |
| O=C(Nc1nnc(-c2ccc(F)cc2)o1)c1cccc(-c2ccccc2)c1 [AC10064, N-(5-(4-fluorophenyl)-1,3,4-oxadiazol-2-yl)-[1,1′-biphenyl]-3-carboxamide] | 98 ± 1 | 2.3 ± 0.4 | 84 ± 3 | 7 ± 1 |
| COc1ccc(C(=O)Nc2nnc(-c3cccs3)o2)cc1 [AC10018, 4-methoxy-N-(5-(thiophen-2-yl)-1,3,4-oxadiazol-2-yl)benzamide] | 80 ± 5 | 15 ± 2 | 10 ± 7 | – |
| O=C(Nc1nnc(C2CCCCC2)o1)c1cccc(F)c1 [AC10047, N-(5-cyclohexyl-1,3,4-oxadiazol-2-yl)-3-fluorobenzamide] | 79 ± 8 | 10.5 ± 2 | 11 ± 3 | – |
| O=C(Nc1nnc(-c2ccc3c(c2)OCCO3)o1)c1ccc(Br)cc1 [AC10015, 4-bromo-N-(5-(2,3-dihydrobenzo[b][1,4]dioxin-6-yl)-1,3,4-oxadiazol-2-yl)benzamide] | 101 ± 0.4 | 3.4 ± 0.6 | 68 ± 0.5 | 23 ± 3 |
| COc1cc(C(=O)Nc2nnc(-c3ccc4c(c3)CCCC4)o2)cc(C(F)(F)F)c1 [AC10074, 3-methoxy-N-(5-(5,6,7,8-tetrahydronaphthalen-2-yl)-1,3,4-oxadiazol-2-yl)-5-(trifluoromethyl)benzamide] | 85 ± 3 | 9.4 ± 1 | 79 ± 6 | 10 ± 0.4 |
| CSc1cccc(C(=O)Nc2nnc(-c3cccs3)o2)c1 [AC10012, 3-(methylthio)-N-(5-(thiophen-2-yl)-1,3,4-oxadiazol-2-yl)benzamide] | 84 ± 5 | 11 ± 2 | 34 ± 1 | 66 ± 2 |
| Cc1ccc(C(=O)Nc2nnc(C3CCCCC3)o2)cc1 [AC10032, N-(5-cyclohexyl-1,3,4-oxadiazol-2-yl)-4-methylbenzamide] | 78 ± 4 | 15.8 ± 2 | 1 ± 12 | – |
| CCc1ccc(C(=O)Nc2nnc(-c3ccc4c(c3)CCCC4)o2)cc1 [AC10062, 4-ethyl-N-(5-(5,6,7,8-tetrahydronaphthalen-2-yl)-1,3,4-oxadiazol-2-yl)benzamide] | 98 ± 1 | 1.2 ± 0.2 | 88 ± 2 | 2 ± 0.4 |
